One may read the EC50 as the concentration needed to bring the measured effect to its halfway point.

Molecules are shown by their SMILES. Where two headings read alike, the source gives them in different places.

The subject of one data set is TFEB. Nature of the data set: High content TFEB-GFP nuclear translocation assay. In kind it is cell-based. To be noted: Homo sapiens, TFEB-GFP HeLa cells. On the procedure:
Immunoblotting of protein extracts isolated from HeLa cells treated overnight, as indicated. Membranes were probed with antibodies for p-T202/Y204-ERK1/2, ERK1/2, p-T389-S6K, and S6K to measure ERK and mTORC1 activities. […] FLAG immunoblotting of cytosolic and nuclear fractions isolated from TFEB-3×FLAG HeLa cells cultured in amino acid-free media and subsequently stimulated as indicated for at least 3 h. Correct subcellular fractionation was verified with H3 and tubulin antibodies. […] After 3 h at 37° C. in RPMI medium containing one of each of the compounds, the cells were washed, fixed, and stained with DAPI and photographed by using confocal automated microscopy (Opera high content system, Perkin Elmer). […] Scale bars represent 30 μm. […] The EC50 for each compound was calculated using Prism software (see Materials and Methods for details). […] Antibody used were p-T389-S6K, S6K and FLAG. […] HeLa cells stably expressing Flag-3×TFEB were infected with lentiviruses encoding a Short hairpin (Sh-) RNA targeting luciferase (control) or RagC and RagD mRNAs. […] TFEB localization was detected with a FLAG antibody, whereas tubulin and H3 were used as controls for the cytosolic and nuclear fraction, respectively; levels of S6K phosphorylation were used to test RagC and RagD knockdown efficiency.
After 3 hours at 37° C. in RPMI medium cells were washed, fixed, and stained with DAPI. For the acquisition of the images, ten pictures per each well of the 384-well plate were taken by using confocal automated microscopy (Opera high content system, Perkin Elmer). A dedicated script was developed to perform the analysis of TFEB localization on the different images (Acapella software, Perkin Elmer). The script calculates the ratio value resulting from the average intensity of nuclear TFEB-GFP fluorescence divided by the average of the cytosolic intensity of TFEB-GFP fluorescence. The results were normalized using negative (RPMI medium) and positive (HBSS starvation) control samples in the same plate. The data are represented by the percentage of nuclear translocation at the different concentrations of each compound using Prism software (GraphPad software). The EC50 for each compound was calculated using non-linear regression fitting (Prism software).
In order to find additional small molecules able to induce the translocation of TFEB from the cytosol to the nucleus, the applicants developed a cell-based high content assay using stable HeLa cells overexpressing TFEB fused to the green fluorescent protein (TFEB-GFP). In the assay imaging of treated cells is acquired by an automated confocal microscope (OPERA system) and the analysis of those images with Acapella image software calculates the ratio of the average of fluorescence intensity of TFEB-GFP between the cytosol and nucleus of the cell (see Materials and methods for details). […] They tested ten concentrations for each inhibitor.

Data set [1] deals with glycosaminoglycan (GAG) accumulation in MSD NSCs. Nature of the data set: Alcian blue staining of GAGs in differentiated NSCs from MSD mice (FIG. 22). In kind it is cell-based, mouse. To be noted: glia-differentiated MSD NSCs, 10 nM, 24 hours, versus DMSO. On the procedure:
After 24 hours, the GAG content was determined by alcian blue (AB) staining. Both torins were able to reduce GAG staining in MSD treated cells as compared to DMSO treated cells.
Neuronal progenitor cells were isolated from cortices of WT and MSD pups (P0) by tissue homogenization using the neural tissue dissociation kit and separation using magnetic sorting of cells expressing the stem cell marker prominin-1 (Miltenyi Biotec Srl). Neuronal progenitor cells were maintained in ESGRO complete medium (Hyclone) in the presence of EGF and FGF2 growth factors (Prepotech). Where indicated, neural stem cells (NSCs) were differentiated by removing growth factors and incubate in ESGRO medium containing 2% of serum for at least 48 h.
Neuronal progenitor cells were isolated from cortices of WT and MSD pups (P0) by using standard protocols. Neuronal stem cells (NSCs) were fixed in Methacarn (60% Methanol; 10% Acetic Acid; 30% Chloroform) for 15 min at RT. After washing the cells were stained for 3 hours in 1% alcian blue pH 2.5, rinsed in 0.3% acetic acid and water and mounted in 100% for visualization.

The test system of data set [2] is vacuolization in MSD cells. Kind of data set: Electron microscopy of vacuolization in differentiated MSD NSCs (FIG. 23). In kind it is cell-based, mouse. On the procedure:
Differentiated NSC were fixed on glutaraldehyde and processed for standard electron microscopy.
Cells were washed with PBS, fixed in 0.05% glutaraldehyde, and dissolved in 0.2 M Hepes buffer (pH 7.4) for 30 min at room temperature. The cells were then post-fixed for 2 h in OsO4. After dehydration in graded series of ethanol, the cells were embedded in Epon 812 (Fluka) and polymerized at 60° C. for 72 h. Thin sections were cut at the Leica EM UC6, counterstained with uranyl acetate and lead citrate.

Data set [3] relates to Multiple Sulfatase Deficiency (MSD) mice. Nature of the data set: Liver GAG accumulation by alcian blue staining in treated MSD mice (FIG. 24). As to conditions: oral gavage 0.3 mg/day/mouse in 50% PEG400, 10 days, n=3. In kind it is in vivo. On the procedure:
FIG. 24 Torin 2 reduces GAG accumulation in the liver of MSD mice. MSD mice were treated with placebo (MSD—750) or torin2 (MSD—727) during 10 days (oral administration; 0.3 mg torin 2/day/mouse in 50% PEG400). After the treatment liver tissues were collected and GAG accumulation was determined by alcian blue staining (black spots).
(§1) Multiple Sulfatase Deficiency (MSD) mice were treated with placebo (n=3) or torin 2 (n=3) during 10 days (gavage-oral administration; 0.3 mg torin 2/day/mouse in 50% PEG400). […] After the treatment liver tissues were collected and GAG accumulation was determined by alcian blue staining.
Sections of paraffin-embedded liver tissue were stained with 1% Alcian blue (Sigma-Aldrich) and counterstained with Nuclear-Fast red (Sigma-Aldrich).

The format of data set [4] is in vivo. As to conditions: MSD mice, oral gavage 0.3 mg/day/mouse, 10 days. On the procedure:
as §1

Regarding `Nc1ccc(-c2ccc3ncc4ccc(=O)n(-c5cccc(C(F)(F)F)c5)c4c3c2)cn1` [TORIN 2], the EC50 in the data set on TFEB (3 h, ten concentrations 2.54 nM to 50 μM (FIG. 19D), read-out: EC50, TFEB nuclear translocation) amounted to 1.67 µM. The half-maximal effective concentration (EC50) in the data set on TFEB (mobilization of cytosolic TFEB to the nucleus, 3 h at 37° C. in RPMI, ten concentrations 50 μM to 2.54 nM, 4 runs, read-out: Average EC50) is below 7 µM. For the same compound, the “alcian blue-stained GAGs” value in data set [1] is listed as “striking reduction”. In data set [2], the cellular vacuolization result is “reduces vacuolization”. Further, in data set [3], the “GAG staining in liver” value is recorded as “significant reduction”. Also, in data set [4], the “body weight after treatment” value is listed as “no weight differences” and the survival result is “all the mice treated survived”.

These data come from patent US20140038920A1, “TFEB PHOSPHORYLATION INHIBITORS AND USES THEREOF” (FONDAZIONE TELETHON, priority 2011, published 2014).
